{"source": "patent US20170333450A1", "about": "“COMPOSITIONS AND METHODS FOR TREATING HIV-ASSOCIATED COGNITIVE DYSFUNCTION” (The Regents of the University of California, priority 2014, published 2017)", "key": {"primary rodent neurons": {"tested_on": "primary rodent neurons", "assay": "Neurotoxicity of MDM culture supernatants on cultured primary rodent neurons (MAP-2 expression)", "assay_type": "cell-based", "settings": "supernatants of HIV infected MDM on primary rodent neurons, FIG. 1, Panel C", "source_text": "(§1) FIG. 1 includes three panels identified as panels A, B, and C showing the results of preclinical testing of Bardoxolone in human monocyte-derived macrophages (MDM) and primary rodent neurons. […] “Mock 1” and “Mock 2” correspond to supernatant from untreated, uninfected macrophages run in parallel with treated macrophages. “Vehicle 1” and “Vehicle 2” correspond to supernatant from macrophages that received 0.05% DMSO and no additional drug. […] This effect is seen at Bardoxolone concentrations as low as 5 nM.\nIn addition, pre-treated neurons were exposed to the supernatants. Briefly, MDM culture supernatants are applied to cultured primary rodent neurons to test for MDM culture supernatant neurotoxicity. […] This is an indication of neuronal health."}, "heme-oxygenase-1 (HO-1)": {"tested_on": "heme-oxygenase-1 (HO-1)", "assay": "HO-1 expression in HIV-infected and non-infected monocyte-derived macrophages (MDM) treated with test drug", "assay_type": "cell-based, human", "settings": "Bardoxolone 5 nM or 50 nM, FIG. 1, Panel A", "source_text": "as §1\n(§2) Monocyte-derived macrophages (MDM), obtained from uninfected donors, were pretreated with Bardoxolone (5 nM or 50 nM), Tempol, 4-hydroxy-2,2,6,6-tetramethylpiperidin-1-oxyl, (500 nM or 5 μM) or control (0.05% DMSO) for 24 hours prior to HIV infection. […] See FIG. 1, Panel A. This enhanced HO-1 expression decreases release of soluble neurotoxins from infected MDM. “Mock 1” and “Mock 2” correspond to supernatant from untreated, uninfected macrophage run in parallel with treated macrophages. “Vehicle 1” and “Vehicle 2” correspond to supernatant from macrophages that received 0.05% DMSO and no additional drug. Final concentration of DMSO in all treated wells is 0.05%."}, "HIV": {"tested_on": "HIV", "assay": "HIV replication in MDM by reverse transcriptase (RT) activity in the culture supernatant", "assay_type": "cell-based", "settings": "FIG. 1, Panel B", "source_text": "as §1, §2\nViral replication was determined via reverse, transcriptase (RT) expression in the cell culture supernatant. The RT assay measured incorporation of ^32P dT into long chain poly rA."}, "[1]": {"tested_on": "HIV-infected U1 monocytes", "assay": "Viral expression (p24 gag) in HIV-infected U1 monocytes after LPS stimulation", "assay_type": "cell-based", "settings": "250 nM pre-treatment overnight, LPS activated; FIG. 2", "description": "As such, methods for reducing viral replication may reduce risk for HAND. In another series of experiments, HIV-infected monocytes were exposed to a virus replication stimulus to determine if pretreatment with Bardoxolone inhibited viral replication. […] Here, a comparison of control cells with those pre-treated with either Tempol (1 μM) or Bardoxolone (250 nM) overnight was performed. The cells were then split into two conditions: LPS activated and non-LPS."}}, "note": "“Also recorded” adds a separate entry of the source.", "data": [{"smiles": "CC1(C)CC[C@]2(C(=O)O)CC[C@]3(C)[C@H](C(=O)C=C4[C@@]5(C)C=C(C#N)C(=O)C(C)(C)[C@@H]5CC[C@]43C)[C@@H]2C1", "note": "[Bardoxolone]", "values": [{"measurement": "levels of MAP-2 in the neuron cultures", "setting": "primary rodent neurons", "result": "maintenance or normal levels"}, {"measurement": "neurotoxicity of the MDM cell culture supernatants", "setting": "primary rodent neurons; compared to vehicle control and to Tempol", "result": "dramatically reduced"}, {"measurement": "expression of HO-1 in HIV-infected MDM", "setting": "heme-oxygenase-1 (HO-1); 24 hours before HIV infection and throughout infection", "result": "enhanced expression"}, {"measurement": "expression of HO-1 in non-infected MDM", "setting": "heme-oxygenase-1 (HO-1)", "result": "enhanced expression"}, {"measurement": "concentration at which reduction of HIV replication in MDM is seen", "setting": "HIV; lowest concentration tested, RT activity", "result": "≤ 5", "unit": "nM"}, {"measurement": "HIV reverse transcriptase (RT) activity in the culture supernatants (HIV replication in MDM)", "setting": "HIV; pre-treatment 24 hours before HIV infection, 5 nM or 50 nM", "result": "reduced levels"}, {"measurement": "amount of viral expression (p24 gag) following stimulation", "setting": "[1]", "result": "reduced; also recorded: decreased"}]}]}
